≈ marks a conversion by molar mass, not a printed value. Like-named read-outs stand apart in the source and are kept apart here.
Key:
[1] = system: THP-1 cells; assay: Cytotoxicity assay: human THP-1 cell line (Alamar Blue); assay type: cell-based; conditions: for IC50: Homo sapiens, THP-1, cytotoxicity, 48 h
Method: THP-1 cells were passed into fresh THP-1 culture medium. Cells were harvested by centrifugation (250×g, 10′, 4 °C), washed three times with RPMI 1640 medium, and diluted to 8 × 10^5 cells/mL. The cells were aliquoted in triplicate (125 μL/well) into 96-well flat-bottom plates containing compounds diluted in complete medium (125 μL/well, containing 0.01% DMSO). THP-1 cells in wells containing medium plus 0.01% DMSO served as negative controls. Cells were incubated with test compounds at 37 °C and 5% CO2 for 48 h prior to the addition of 10% Alamar Blue (25 μL/well). After an additional 4 h the fluorescence was read (λex = 544 nm, λem = 590 nm) using a microplate reader (Fluoroskan Ascent FL, Thermo Fisher Scientific, Waltham, MA, USA). Results were analysed using Prism 4 (GraphPad Software Inc., La Jolla, CA, USA). Experiments were performed in triplicate and were repeated at least twice.

[2] = system: Plasmodium falciparum parasites (3D7 strain); assay: Coenzyme A rescue assay (imaging-based growth inhibition, with or without 0.8 mM CoA); assay type: cell-based; conditions: for IC50 shift with CoA supplementation: IC50 CoA / IC50 solvent; for IC50-ratio (CoA/solvent): IC50 with 0.8 mM CoA / IC50 solvent, threshold 5× significant; for IC50: Plasmodium falciparum
Method: Plasmodium falciparum parasites (3D7 strain) were grown in RPMI 1640 supplemented with 25 mM HEPES, 5 mg/mL Albumax II, and 0.37 mM hypoxanthine. Parasites were subjected to two rounds of sorbitol synchronization before undergoing compound treatment. Ring stage parasites were exposed to the experimental compounds alone, or in combination with 0.8 mM coenzyme A (CoA) in 384-wells imaging microplates (CellCarrier, PerkinElmer), as previously described. […] Puromycin 5 µM and untreated solvent were used as in-plate positive and negative controls, respectively. Samples were dissolved in DMSO to a final assay DMSO concentration of 0.4%. […] All sample and control wells contained the same final amounts of solvents. Plates were incubated for 72 h at 90% N2, 5% CO2, 5% O2, then parasites were stained with 2-(4-amidinophenyl)-1H-indole-6-carboxamidine (DAPI), and imaged using an Opera QEHS micro-plate confocal imaging system (PerkinElmer) with 405 nm excitation and 450/50 emission filter, using a 20× water immersion objective. Images were analysed as previously described, to obtain normalized % inhibition data, which were then used to calculate IC50 values, through a four parameter logistic curve fitting in GraphPad Prism v.6. The experiment was carried out in two independent biological replicates, each consisting of two technical replicates. Dose–response curves are illustrated in the Additional file 4.

[3] = Aqueous thermodynamic solubility, miniaturized shake-flask method with HPLC; assay type: physicochemical; conditions: for solubility thermodynamic / solubility: aqueous phosphate buffer, 25 °C, pH 7.4, aqueous buffer, thermodynamic from solid
Method: The aqueous solubility was determined using a miniaturized shake-flask-method. In brief, the compound (0.25–1.0 mg) was incubated in a Whatman Mini-Uniprep vial with aqueous phosphate buffer, pH 7.4, (300 µL) in an incubation shaker (IKA® KS 3000 ic control, Staufen, Germany) at 25 °C, 400 rpm. Presence of undissolved compound was checked at 24 and 48 h. After 24, 48, or 72 h of shaking, the filter plunger was punched into the vial and the concentration in the supernatant was determined by HPLC (AUC method, isocratic HPLC, at specific λmax as indicated in the Additional file 2). For the calibration, at least three different dilutions of the compounds from DMSO stock solutions diluted with ACN were quantified. Preparation of buffer pH 7.4: to a solution of Na2HPO4∙2 H2O (290 mg), K2HPO4 (20 mg) and NaCl (808 mg) in water (ad 100.0 mL), 12% aqueous HCl was added dropwise until the pH reached 7.4. In the case of 3a the concentration in the supernatant was below the limit of quantification. […] Further details of the solubility testing methods are described in Additional file 2, including calibration concentration ranges, composition of chromatographic eluents, and wavelength for measurement of absorbance.
Two stock solutions of each compound with a concentration of 10 mM (except for 8g: 1 mM) were prepared. Three dilutions with ACN were prepared (concentration range: 3d: 100 µM – […]
8g: 10 µM – 0.3 µM; 8k: 100 µM – 10 µM) from the stock solutions of the test compounds and measured as duplicates by HPLC (isocratic elution: solvent indicated in Additional file 2, Table, injection volume: indicated in Additional file 2, Table, flow rate: 1.000 mL/min, column temperature: 40 °C, time of detection: 8 min, detection by DAD at specific λmax as indicated in Additional file 2, Table). The area under the curve (% AUC) of the substance peak was determined and together with the respective concentration a linear calibration graph was created with Microsoft Excel (2010, Microsoft Corporation) for every compound.
Additional file 2, Table Af1: Solvents for isocratic elution, injection volumes and specific λmax […]
ID solvent injection volume [µL] λmax [nm]
Sample preparation and measurement of compound solubility
Samples of test compounds (0.25‐1.0 mg) were placed in Whatman‐Uni‐Prep® vials and aqueous phosphate buffer, pH 7.4 (300 µL, composition is indicated in Additional file 2, Table Af1) was added. The presence of undissolved compound was a requirement to determine the thermodynamic solubility. The vials were capped with the appropriate filter, […]
Additionally the vials were sealed with Parafilm M (Bemis Flexible Packaging, Neenah, WI, USA). The samples were incubated in an incubation shaker (IKA® KS 3000 ic control, Staufen, Germany) at 400 rpm and 25 °C for […]
24‐72 h. The presence of undissolved compound was checked at 24 and 48 h. Measurement of the samples was performed after 24 h, 48 h and 72 h; he filter plunger was punched into the vial and the concentration in the supernatant was determined by HPLC using the same methods as for the calibration solutions (Additional file 2, Table). All samples were measured in triplicate. By determination of the area under the curve (% AUC) of the substance and the specific linear calibration graph, the concentration of every compound in aqueous buffer solution was calculated. By comparison of the samples after 24 h and 48 h it was checked if equilibrium had been achieved after 24 h; if not, the samples were compared after 48 h and 72 h to check if equilibrium had been achieved after 48 h. In the case of 3a the concentration in the supernatant was below the limit of quantification. Therefore the lowest […]
Additional file 2, Table Af1: Composition of phosphate buffer pH 7.4 for determination of aqueous solubility. Modified according to Ph. Eur.8 […]
a Adjustment to pH 7.4 was carried out using a pH meter equipped with a glass electrode. […]
Lüddens, H., Synthesis of GABA A receptor agonists and evaluation of their α‐ […]

[4] = 3D7, 72 h, 0.8 mM CoA (rescue), 72 h, read-out: IC50 [µM], Pf3D7 + 0.8 mM CoA
[5] = 3D7, 72 h, no CoA (solvent, non-rescue), 72 h, read-out: IC50 [µM], Pf3D7 + solvent
[6] = aqueous buffer pH 7.4, shake flask
[7] = thermodynamic solubility, aqueous buffer pH 7.4, 25 °C, equilibrium after 24 h (c) or 48 h (d) per footnote, read-out: S0, exp
[8] = thermodynamic solubility, aqueous buffer pH 7.4, 25 °C, equilibrium after 24 h (c) or 48 h (d) per footnote

SMILES	IC50 [1]	IC50 shift with CoA supplementation [2]	IC50-ratio (CoA/solvent) [2]	IC50 [2, 4]	IC50 [2, 5]	Log S0, exp [3, 6]	solubility thermodynamic [3, 7]	selectivity THP-1 vs 3D7 parasites ([1]; IC50 THP-1 / IC50 3D7)	selectivity toward human cell lines ([1]; human cell lines vs 3D7)	IC50 ([2]; 3D7, no CoA, read-out: IC50, 3D7 strain)	fold higher antiplasmodial activity ([2]; compared to 8c)	solubility ([3]; pH 7.4, shake flask)	aqueous solubility ([3]; pH 7.4, shake flask, listed as 8e (KuWei173))	S0, exp [µM] [3, 8]	solubility thermodynamic ([3]; aqueous buffer pH 7.4, shake flask, read-out: Log S0, exp (converted))
Nc1nnc(Sc2ncnc3sccc23)s1 [Compound 8f]	11 µM	117 fold	117	> 11 µM	0.096 ± 0.006 µM	−5.36	4.4 µM (≈ 1.18 µg/mL)	–	–	–	–	–	–	–	–
c1coc(Sc2ncnc3sccc23)n1 [Compound 8e]	33.6 µM	34 fold	34.5	2.6 ± 0.4 µM	0.0747 ± 0.021 µM	−2.88	–	450 fold	> 100 fold	0.075 µM	17 fold	1330 µM (≈ 313 µg/mL)	> 1000 µM	1.33 × 10^3 c µM	–
c1cnc2[nH]c(Sc3ncnc4sccc34)nc2c1 [Compound 8k]	28 µM	–	7.11	1.06 ± 0.03 µM	0.149 ± 0.021 µM	−4.11	77 µM (≈ 22 µg/mL)	–	–	–	–	–	–	–	–
c1csc(Sc2ncnc3sccc23)n1 [Compound 8d]	27.5 µM	67 fold	67.3	2.6 ± 0.4 µM	0.039 ± 0.001 µM	−4.44	36.4 µM (≈ 9.15 µg/mL)	–	–	–	–	–	–	–	–
Cn1ccnc1Sc1ncnc2sccc12 [Compound 8c]	> 300 µM	–	–	2.31 ± 0.17 µM	1.3 µM	–	–	–	–	–	–	> 1000 µM	–	1780 µM·days	1780 µM (≈ 442 µg/mL)
c1ccc2[nH]c(Sc3ncnc4sccc34)nc2c1 [Compound 8g]	16.5 µM	–	7.23	0.531 ± 0.007 µM	0.0734 ± 0.0022 µM	−6.37	–	–	–	–	–	–	–	–	–
c1coc(-c2nnc(Sc3ncnc4sccc34)o2)c1 [Compound 3a]	6.13 µM	–	16.3	4.61 ± 0.15 µM	0.283 ± 0.073 µM	<−6.00	< 1 µM	–	–	–	–	–	–	–	–
